# ChEMBL document CHEMBL1144956, “Chemical synthesis and cytotoxicity of dihydroxylated cyclopentenone analogues of neocarzinostatin chromophore” (Bioorg Med Chem Lett, 2003)
# What was measured:
# Format in all cases: functional, cell-based
# K562 = test: In vitro cytotoxic activity against human leukemic cell line K562 after incubation for 1 hour; settings: K562, 1 h
# A2780 [1] = test: In vitro cytotoxic activity against human tumor cell line A2780CisR after incubation for 96 hours; settings: A2780, 96 h
# HT-29 = test: In vitro cytotoxic activity against human tumor cell line HT-29 after incubation for 96 hours; settings: HT-29, 96 h
# A2780 [2] = test: In vitro cytotoxic activity against human tumor cell line A2780 after incubation for 96 hours; settings: A2780, 96 h
# CH1 = test: In vitro cytotoxic activity against human tumor cell line CH1 after incubation for 96 hours; settings: CH1, 96 h
# SK-OV-3 = test: In vitro cytotoxic activity against human tumor cell line SKOV-3 after incubation for 96 hours; settings: SK-OV-3, 96 h
SMILES,IC50 (K562),IC50 (A2780 [1]),IC50 (HT-29),IC50 (A2780 [2]),IC50 (CH1),IC50 (SK-OV-3)
COc1cc(C)c2ccc(O)c(C(=O)O[C@H]3[C@H](O)C=C[C@@H]3O)c2c1,> 100 µM,,,,,
COc1cc(C)c2ccc(O)c(C(=O)O[C@@H]3C=CC(=O)[C@H]3O)c2c1,5 µM,4 µM,11 µM,2.5 µM,2.5 µM,2.5 µM
COc1cc(C)c2ccc(O)c(C(=O)O[C@@H]3C(=O)C=C[C@H]3O)c2c1,4.5 µM,9 µM,13 µM,9.4 µM,11 µM,7.2 µM
O=C(O[C@H]1[C@H](O)C=C[C@@H]1O)c1c(O)ccc2ccccc12,> 100 µM,,,,,
O=C(O[C@@H]1C=CC(=O)[C@H]1O)c1c(O)ccc2ccccc12,6 µM,8.6 µM,12 µM,2.7 µM,4 µM,2.3 µM
O=C(O[C@@H]1C(=O)C=C[C@H]1O)c1c(O)ccc2ccccc12,4 µM,9.4 µM,12 µM,3.7 µM,5.8 µM,3.1 µM
O=C(O[C@@H]1C=C[C@H](O)[C@H]1O)c1c(O)ccc2ccccc12,> 100 µM,,,,,
O=C(O[C@@H]1C=C(Br)C(=O)[C@H]1O)c1c(O)ccc2ccccc12,3.5 µM,17.5 µM,> 25 µM,10 µM,11 µM,11 µM
COc1cc(C)c2ccc(O)c(C(=O)O[C@@H]3C=C[C@H](O)[C@H]3O)c2c1,> 100 µM,,,,,
O=C(O[C@@H]1C(=O)C(Br)=C[C@H]1O)c1c(O)ccc2ccccc12,5 µM,13 µM,> 25 µM,9.4 µM,11 µM,9.4 µM
